The numbers were not newly measured in patent publication US20110262436A1, “TREATMENT METHOD” (Genentech, Inc., priority 2008, published 2011), which cites them from elsewhere.

This data set relates to advanced, treatment-refractory NSCLC. Particulars: phase III trial; cited from earlier work.

On to `C#Cc1cccc(Nc2ncnc3cc(OCCOC)c(OCCOC)cc23)c1` [erlotinib, N-(3-ethynylphenyl)-6,7-bis(2-methoxyethoxy)-4-quinazolinamine], for which the “Survival, erlotinib monotherapy” value is “significantly prolonged survival”.
